Measured values from patent US12281363B2, “Methods for detecting antiviral-drug resistant virus” (Secretary of State for Health and Social Care, priority 2018, dated 2025).
Like-named read-outs stand apart in the source and are kept apart here.

System: HSV-1
Assay: Plaque reduction assay, HSV-1 clinical isolates on Vero cells
Assay type: cell-based
Conditions: Human alphaherpesvirus 1, Vero
From the text: Viral isolates were used to infect a sub-confluent monolayer of Vero cells at a concentration of 75 or 50 plaque forming units (PFU) per well for HSV-1 and HSV-2, respectively. […] CMC medium typically used to create a semisolid interface and prevents indiscrimate viral spreading. Other materials (e.g. agar) may also be used to create this interface.
Cells were fixed with 10% formalin and stained with crystal violet before enumeration of the plaques (microscopic observation or use of fluorescent antibodies for detection is also suitable). The data obtained from these experiments were then expressed as percent inhibition of viral infectivity relative to the no drug control.
Definitions of phenotypic drug susceptibility classification as sensitive or resistant were as follows: ACV, <3 μM or >40 μM; PCV, <10 μM or >40 μM; CDV, <24 μM or >30 μM; FOS, <250 μM or >400 μM; and ACV, <6.5 μM or >40 μM; PCV, <38 μM or >40 μM; FOS, <250 μM or >400 μM for HSV-1 and HSV-2, respectively. Any IC50 values falling in between these sensitive and resistant cut-offs were reported as intermediate resistance.
The phenotype (i.e. reactivity to a drug) of the virus was characterised by the plaque reduction assay as described above.

In the case of `O=C(O)P(=O)(O)O` [Foscarnet, foscarnet], the IC50 (isolate HPG033, HSV-1 TK I358L (1072A>C), also TK T287M, read-out: Drug susceptibility (IC50 value)) is reported as 88.3 µM, the IC50 (isolate HPG033, HSV-1 TK I358L (1072A>C), also TK T287M, read-out: Drug susceptibility Foscarnet (FOS)) is reported as less than 250 µM and the IC50 (isolate HPG033, HSV-1 pol N1046T (3137A>C), also TK T287M, pol A1169T, read-out: Drug susceptibility (IC50 value)) is reported as 88.3 µM. It also gave an IC50 (isolate HPG033, HSV-1 pol N1046T (3137A>C), also TK T287M, pol A1169T, read-out: Drug susceptibility Foscarnet (FOS)) of less than 250 µM, an IC50 (isolate HPG035, HSV-1 pol S239L (716C>T), also pol S724N, read-out: Drug susceptibility (IC50 value)) of 701 µM and an IC50 (isolate HPG035, HSV-1 pol S239L (716C>T), also pol S724N, read-out: Drug susceptibility Foscarnet (FOS)) greater than 400 µM. It also gave an IC50 (isolate HPG037, HSV-1 TK L69M (205>A), also TK Y239H, read-out: Drug susceptibility Foscarnet (FOS)) of less than 250 µM, an IC50 (isolate HPG037, HSV-1 TK R256W (766C>T), read-out: Drug susceptibility (IC50 value)) of 80 µM and an IC50 (isolate HPG037, HSV-1 TK R256W (766C>T), read-out: Drug susceptibility Foscarnet (FOS)) of less than 250 µM. For the same molecule, the IC50 (isolate HPG037, HSV-1 TK Y239H (715T>C), read-out: Drug susceptibility (IC50 value)) was 80 µM, the IC50 (isolate HPG037, HSV-1 TK Y239H (715T>C), read-out: Drug susceptibility Foscarnet (FOS)) was less than 250 µM and the IC50 (isolate HPG039, HSV-1 TK 85* or H58fs (169delC, 170delC, 171delC, or 172delC), read-out: Drug susceptibility (IC50 value)) was 59.8 µM. For the same molecule, the IC50 (isolate HPG039, HSV-1 TK 85* or H58fs (169delC, 170delC, 171delC, or 172delC), read-out: Drug susceptibility Foscarnet (FOS)) was less than 250 µM, the IC50 (isolate HPG040, HSV-1 pol S911N (2732G>A), also TK deletion (C) nt 896-900, pol A1169T, read-out: Drug susceptibility (IC50 value)) was 137 µM and the IC50 (isolate HPG040, HSV-1 pol S911N (2732G>A), also TK deletion (C) nt 896-900, pol A1169T, read-out: Drug susceptibility Foscarnet (FOS)) was less than 250 µM. The IC50 (isolate HPG041, HSV-1 pol S911N (2732G>A), also pol A1169T, read-out: Drug susceptibility (IC50 value)) was 89.5 µM, the IC50 (isolate HPG041, HSV-1 pol S911N (2732G>A), also pol A1169T, read-out: Drug susceptibility Foscarnet (FOS)) was less than 250 µM and the IC50 (isolate HPG042, HSV-1 pol A972V (2915C>T), also TK deletion (C) nt 881-885, pol A1169T, read-out: Drug susceptibility (IC50 value)) was 60.7 µM. It also gave an IC50 (isolate HPG042, HSV-1 pol A972V (2915C>T), also TK deletion (C) nt 881-885, pol A1169T, read-out: Drug susceptibility Foscarnet (FOS)) of less than 250 µM, an IC50 (isolate HPG042, HSV-1 pol G22R (64G>A), also TK deletion (C) nt 881-885, pol A1169T, read-out: Drug susceptibility (IC50 value)) of 60.7 µM and an IC50 (isolate HPG042, HSV-1 pol G22R (64G>A), also TK deletion (C) nt 881-885, pol A1169T, read-out: Drug susceptibility Foscarnet (FOS)) of less than 250 µM. For the same molecule, the IC50 (isolate HPG043, HSV-1 TK 183* (437_438insA), read-out: Drug susceptibility (IC50 value)) was 69 µM, the IC50 (isolate HPG043, HSV-1 TK 183* (437_438insA), read-out: Drug susceptibility Foscarnet (FOS)) was less than 250 µM and the IC50 (isolate HPG045, HSV-1 TK L49R (146T>G), read-out: Drug susceptibility (IC50 value)) was 75 µM. The IC50 (isolate HPG045, HSV-1 TK L49R (146T>G), read-out: Drug susceptibility Foscarnet (FOS)) was less than 250 µM, the IC50 (isolate HPG045, HSV-1 pol L419I (1255C>A), also TK L49R, pol A1169T, read-out: Drug susceptibility (IC50 value)) was 75 µM and the IC50 (isolate HPG045, HSV-1 pol L419I (1255C>A), also TK L49R, pol A1169T, read-out: Drug susceptibility Foscarnet (FOS)) was less than 250 µM. It also gave an IC50 (isolate HPG046, HSV-1 TK I166N (497T>A), read-out: Drug susceptibility (IC50 value)) of less than 50 µM, an IC50 (isolate HPG046, HSV-1 TK I166N (497T>A), read-out: Drug susceptibility Foscarnet (FOS)) of less than 250 µM and an IC50 (isolate HPG047, HSV-1 pol E680 (2039A>C), also TK deletion (C) nt 548-553, pol A1169T, read-out: Drug susceptibility Foscarnet (FOS)) of less than 250 µM. It also gave an IC50 (isolate HPG050, HSV-1 TK Q34* (100C>T), read-out: Drug susceptibility (IC50 value)) of 169 µM, an IC50 (isolate HPG050, HSV-1 TK Q34* (100C>T), read-out: Drug susceptibility Foscarnet (FOS)) of less than 250 µM and an IC50 (isolate HPG051, HSV-1 pol D83A (248A>C), also TK R176stop, read-out: Drug susceptibility (IC50 value)) of 82.6 µM. The IC50 (isolate HPG051, HSV-1 pol D83A (248A>C), also TK R176stop, read-out: Drug susceptibility Foscarnet (FOS)) was less than 250 µM, the IC50 (isolate HPG052, HSV-1 TK Q34* (100C>T), read-out: Drug susceptibility (IC50 value)) was 76.9 µM and the IC50 (isolate HPG052, HSV-1 TK Q34* (100C>T), read-out: Drug susceptibility Foscarnet (FOS)) was less than 250 µM. The IC50 (isolate HPG053, HSV-1 pol L802R + A834S (2405T>G, 2500G>T), also TK R176W, read-out: Drug susceptibility Foscarnet (FOS)) was greater than 400 µM, the IC50 (isolate HPG053, HSV-1 pol S911N (2732G>A), also TK R176W, pol A1169T, read-out: Drug susceptibility (IC50 value)) was 626 µM and the IC50 (isolate HPG053, HSV-1 pol S911N (2732G>A), also TK R176W, pol A1169T, read-out: Drug susceptibility Foscarnet (FOS)) was greater than 400 µM. It also gave an IC50 (isolate HPG054, HSV-1 pol E992K (2974G>A), also TK insert (G) nt 430-436, pol A1169T, read-out: Drug susceptibility (IC50 value)) of 52.9 µM, an IC50 (isolate HPG054, HSV-1 pol E992K (2974G>A), also TK insert (G) nt 430-436, pol A1169T, read-out: Drug susceptibility Foscarnet (FOS)) of less than 250 µM and an IC50 (isolate HPG055, HSV-1 TK V204G (611T>G), also pol A1169AT, read-out: Drug susceptibility (IC50 value)) of less than 50 µM. It also gave an IC50 (isolate HPG055, HSV-1 TK V204G (611T>G), also pol A1169AT, read-out: Drug susceptibility Foscarnet (FOS)) of less than 250 µM, an IC50 (read-out: Drug susceptibility (IC50 value), isolate HPG005, HSV-1 TK A192T (574G>A)) of less than 50 µM and an IC50 (read-out: Drug susceptibility (IC50 value), isolate HPG006, HSV-1 pol G121S (361G>A), also a TK resistance mutation (footnote a)) of 115 µM. The IC50 (read-out: Drug susceptibility (IC50 value), isolate HPG012, HSV-1 pol G985E (2954G>A), also TK A93V) was 92.1 µM, the IC50 (read-out: Drug susceptibility (IC50 value), isolate HPG016, HSV-1 pol A1169T (3505G>A)) was 154 µM and the IC50 (read-out: Drug susceptibility (IC50 value), isolate HPG037, HSV-1 TK L69M (205>A), also TK Y239H) was 80 µM. For the same molecule, the IC50 (read-out: Drug susceptibility (IC50 value), isolate HPG042, HSV-1 TK frameshift (881delC to 885delC)) was 60.7 µM, the IC50 (read-out: Drug susceptibility (IC50 value), isolate HPG047, HSV-1 pol E680 (2039A>C), also TK deletion (C) nt 548-553, pol A1169T) was 92.4 µM and the IC50 (read-out: Drug susceptibility Foscarnet (FOS), isolate HPG005, HSV-1 TK A192T (574G>A)) was less than 250 µM. For the same molecule, the IC50 (read-out: Drug susceptibility Foscarnet (FOS), isolate HPG006, HSV-1 pol G121S (361G>A), also a TK resistance mutation (footnote a)) was less than 250 µM, the IC50 (read-out: Drug susceptibility Foscarnet (FOS), isolate HPG012, HSV-1 pol G985E (2954G>A), also TK A93V) was less than 250 µM and the IC50 (read-out: Drug susceptibility Foscarnet (FOS), isolate HPG016, HSV-1 pol A1169T (3505G>A)) was less than 250 µM. For the same molecule, the IC50 (read-out: Drug susceptibility Foscarnet (FOS), isolate HPG042, HSV-1 TK frameshift (881delC to 885delC)) was less than 250 µM.
